Columns and labels:
[1] = target: T1, human norepinephrine transporter (Homo sapiens, UniProt P23975); assay: hNET receptor binding ([125I]-RTI-55 radioligand binding); conditions: membranes of HEK-293 cells transfected with human norepinephrine transporter, IC50 converted to Ki by Cheng-Prusoff, read-out: hNET (Ki)
T1 construct: host or cells: HEK-293
Excerpt: (§1) The ability of the compounds of this invention to bind to the hNET and serotonin SERT receptor can be determined using conventional radiolig and receptor binding assays. The receptors can be heterologously expressed in cell lines and experiments conducted in membrane preparations from the cell lines using procedures outlined below. IC50 concentrations can be determined by nonlinear regression of concentration-dependent reduction in specific binding. The Cheng-Prussoff equation can be used to convert the IC50 to Ki concentrations.
Cell pastes of HEK-293 cells transfected with the human norepinephrine transporter were supplied by the Pfizer Ann Arbor Protein Expression and Production group. […] Aliquots of membranes (5 mg/ml protein) were stored in liquid nitrogen until used.
(§2) The reaction was incubated by gentle agitation for 90 min at room temperature and was terminated by filtration through Whatman GF/C filter plates using a Brandel 96-well plate harvester. […] Test compounds were run in duplicate, and specific binding was defined as the difference between binding in the presence and absence of 10 μM desipramine.
(§3) Excel and GraphPad Prism software were used for data calculation and analysis. IC50 values were converted to Ki values using the Cheng-Prusoff equation.

[2] = target: T2, human seritonin transporter (Homo sapiens, UniProt P31645); assay: hSERT receptor binding ([125I]-RTI-55 radioligand binding); conditions: membranes of HEK-293 cells transfected with human seritonin transporter, IC50 converted to Ki by Cheng-Prusoff, read-out: SERT (Ki)
T2 construct: host or cells: HEK-293
T2 sequence (P31645 whole entry): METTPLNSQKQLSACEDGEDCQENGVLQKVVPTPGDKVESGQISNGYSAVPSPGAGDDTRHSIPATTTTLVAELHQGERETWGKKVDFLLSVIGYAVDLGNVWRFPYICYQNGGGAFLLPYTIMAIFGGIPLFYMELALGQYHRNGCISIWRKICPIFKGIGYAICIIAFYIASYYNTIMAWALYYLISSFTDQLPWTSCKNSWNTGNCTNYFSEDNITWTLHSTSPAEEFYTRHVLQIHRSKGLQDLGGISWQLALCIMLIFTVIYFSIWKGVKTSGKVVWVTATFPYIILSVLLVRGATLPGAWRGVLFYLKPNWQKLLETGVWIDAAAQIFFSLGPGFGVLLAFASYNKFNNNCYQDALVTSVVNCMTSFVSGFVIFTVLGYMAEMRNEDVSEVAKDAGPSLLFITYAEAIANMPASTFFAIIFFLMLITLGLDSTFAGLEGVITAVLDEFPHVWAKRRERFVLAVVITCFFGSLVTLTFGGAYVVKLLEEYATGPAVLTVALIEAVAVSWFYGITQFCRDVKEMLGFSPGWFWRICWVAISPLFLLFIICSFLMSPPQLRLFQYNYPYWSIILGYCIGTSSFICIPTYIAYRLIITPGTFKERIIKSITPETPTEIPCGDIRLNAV
Excerpt: as §1
Cell pastes of HEK-293 cells transfected with the human seritonin transporter were supplied by the Pfizer Ann Arbor Protein Expression and Production group. […] Aliquots of membranes (5 mg/ml protein) were stored in liquid nitrogen until used.
as §2, with “[…] citalopram.” for “μM desipramine.”
as §3

T1 sequence (P23975 whole entry): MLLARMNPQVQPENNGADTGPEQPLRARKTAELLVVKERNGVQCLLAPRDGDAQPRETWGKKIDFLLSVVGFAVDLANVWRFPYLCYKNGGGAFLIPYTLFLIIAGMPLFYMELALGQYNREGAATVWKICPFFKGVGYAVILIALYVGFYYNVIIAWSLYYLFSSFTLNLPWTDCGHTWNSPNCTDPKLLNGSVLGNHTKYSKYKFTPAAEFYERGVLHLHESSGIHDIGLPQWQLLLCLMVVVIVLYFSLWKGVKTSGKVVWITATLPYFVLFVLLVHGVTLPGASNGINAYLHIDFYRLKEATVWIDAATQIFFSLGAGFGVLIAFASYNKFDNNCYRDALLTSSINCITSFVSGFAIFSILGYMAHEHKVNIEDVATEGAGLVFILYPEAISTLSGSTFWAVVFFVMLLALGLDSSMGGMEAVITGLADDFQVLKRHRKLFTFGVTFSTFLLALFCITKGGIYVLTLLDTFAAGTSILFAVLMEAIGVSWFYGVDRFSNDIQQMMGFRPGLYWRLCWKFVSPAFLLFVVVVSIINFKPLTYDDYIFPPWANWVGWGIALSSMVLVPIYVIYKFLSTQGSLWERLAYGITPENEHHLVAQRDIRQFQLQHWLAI

Ki [1] [nM] | Ki [2] [nM] | SMILES
41 | 2460 | c1ccc([C@H](Oc2ccccc2C2CCCCC2)[C@@H]2CNCCO2)cc1 [Example 56, (S)-2-[(S)-(2-Cyclohexyl-phenoxy)-phenyl-methyl]-morpholine]
24 | 94 | FC(F)Oc1ccccc1O[C@@H](c1ccccc1)[C@@H]1CNCCO1 [Example 57, (S)-2-[(S)-(2-Difluoromethoxy-phenoxy)-phenyl-methyl]-morpholine]
7.4 | 965 | FCCOc1ccccc1O[C@@H](c1ccccc1)[C@@H]1CNCCO1 [Example 58, (S)-2-{(S)-[2-(2-Fluoro-ethoxy)-phenoxy]-phenyl-methyl}-morpholine]
61 | 206 | CC(C)Cc1cc(F)ccc1O[C@@H](c1ccccc1)[C@@H]1CNCCO1 [Example 59, (S)-2-[(S)-(4-Fluoro-2-isobutyl-phenoxy)-phenyl-methyl]-morpholine]
14 | 78 | Fc1cccc(Cl)c1O[C@@H](c1ccccc1)[C@@H]1CNCCO1 [Example 60]
68 | 6600 | c1ccc([C@H](Oc2ccccc2CC2CC2)[C@@H]2CNCCO2)cc1 [Example 61, (S)-2-[(S)-(2-Cyclopropylmethyl-phenoxy)-phenyl-methyl]-morpholine]
12 | 65 | Clc1cccc(Cl)c1O[C@@H](c1ccccc1)[C@@H]1CNCCO1 [Example 62, (S)-2-[(S)-(2,6-Dichloro-phenoxy)-phenyl-methyl]-morpholine]
28 | 2540 | CCOCc1ccccc1O[C@@H](c1ccccc1)[C@@H]1CNCCO1 [Example 63, (S)-2-[(S)-(2-Ethoxymethyl-phenoxy)-phenyl-methyl]-morpholine]
119 | ≥ 10000 | CN(C)c1ccccc1O[C@@H](c1ccccc1)[C@@H]1CNCCO1 [Example 64, (2S,3S)-Dimethyl-[2-(morpholin-2-yl-phenyl-methoxy)-phenyl]-amine]
85 | 1200 | Fc1ccc(Oc2ncccc2O[C@@H](c2ccccc2)[C@@H]2CNCCO2)cc1 [Example 65, (S)-2-{(S)-[2-(4-Fluoro-phenoxy)-pyridin-3-yloxy]-phenyl-methyl}-morpholine]
81 | 176 | Fc1ccc([C@H](Oc2c(F)cccc2F)[C@H]2CNCCO2)cc1 [Example 66, (R)-2-[(S)-(2,6-Difluoro-phenoxy)-(4-fluoro-phenyl)-methyl]-morpholine]
21 | 93 | Brc1ccccc1O[C@@H](c1ccccc1)[C@H]1CNCCO1 [Example 67, (R)-2-[(S)-(2-Bromo-phenoxy)-phenyl-methyl]-morpholine]
19 | 660 | Fc1ccc(O[C@@H](c2ccccc2)[C@@H]2CNCCO2)c(F)c1 [Example 68, (S)-2-[(S)-(2,4-Difluoro-phenoxy)-phenyl-methyl]-morpholine]
26 | 1890 | Fc1ccc(O[C@@H](c2ccccc2)[C@@H]2CNCCO2)cc1 [Example 69, (S)-2-[(S)-(4-Fluoro-phenoxy)-phenyl-methyl]-morpholine]
50 | 65 | c1ccc([C@H](Oc2ccccc2C2CC2)[C@H]2CNCCO2)cc1 [Example 71, (R)-2-[(S)-(2-Cyclopropyl-phenoxy)-phenyl-methyl]-morpholine]
595 | ≥ 10000 | Clc1ccccc1-c1ccccc1OCC1CNCCO1 (stereo not drawn) [Example 73, 2-(2′-Chloro-biphenyl-2-yloxymethyl)-morpholine]
55 | ≥ 10000 | COc1ccccc1-c1ccccc1OCC1CNCCO1 (stereo not drawn) [Example 74, 2-(2′-Methoxy-biphenyl-2-yloxymethyl)-morpholine]

Ki [1] [nM] | Ki [2] [nM] | SMILES
64 | 349 | Fc1ccc(-c2cc(F)ccc2OCC2CNCCO2)cc1 [Example 76, (R)- and (S)-2-(5,4′-Difluoro-biphenyl-2-yloxymethyl)-morpholine]
3160 | ≥ 10000 | c1ccc(Oc2ncccc2OC[C@H]2CNCCO2)cc1 [Example 77, (R)-2-(2-Phenoxy-pyridin-3-yloxymethyl)-morpholine]
10 | 9650 | Fc1ccc(Oc2ncccc2OC[C@@H]2CNCCO2)cc1F [Example 79, (S)-2-[2-(3,4-Difluoro-phenoxy)-pyridin-3-yloxymethyl]-morpholine]
7.5 | 3670 | c1ccc(O[C@@H](c2ccccc2)[C@@H]2CNCCO2)cc1 [Example 80, (S)-2-((S)-Phenoxy-phenyl-methyl)-morpholine]
9.6 | 4320 | Fc1ccc(-c2ccccc2O[C@@H](c2ccccc2)[C@@H]2CNCCO2)cc1 [Example 81, (S)-2-[(S)-(4′-Fluoro-biphenyl-2-yloxy)-phenyl-methyl]-morpholine]
11 | 2610 | Cc1ccc(-c2ccccc2O[C@@H](c2ccccc2)[C@@H]2CNCCO2)cc1 [Example 82, (S)-2-[(S)-(4′-Methyl-biphenyl-2-yloxy)-phenyl-methyl]-morpholine]
3.9 | 3120 | c1ccc(COc2ccccc2O[C@@H](c2ccccc2)[C@@H]2CNCCO2)cc1 [Example 83, (S)-2-[(S)-(2-Benzyloxy-phenoxy)-phenyl-methyl]-morpholine]
7.3 | 4860 | Fc1ccccc1O[C@@H](c1ccccc1)[C@@H]1CNCCO1 [Example 84, (S)-2-[(S)-(2-Fluoro-phenoxy)-phenyl-methyl]-morpholine]
37 | 869 | OCc1ccccc1O[C@@H](c1ccccc1)[C@@H]1CNCCO1 [Example 85, (2S,3S)-[2-(Morpholin-2-yl-phenyl-methoxy)-phenyl]-methanol]
14 | 8090 | Fc1ccccc1-c1ccccc1O[C@@H](c1ccccc1)[C@@H]1CNCCO1 [Example 86, (S)-2-[(S)-(2′-Fluoro-biphenyl-2-yloxy)-phenyl-methyl]-morpholine]
2890 | 953 | Fc1ccc(OC(c2ccccn2)[C@H]2CNCCO2)c(F)c1 (stereo partly drawn) [Example 87, (2R,3R)-2-[(2,4-Difluoro-phenoxy)-pyridin-2-yl-methyl]-morpholine]
4110 | ≥ 10000 | Fc1ccc(Oc2ncccc2OC[C@H]2CNCCO2)cc1 [Example 89, (2R)-2-[2-(4-Fluoro-phenoxy)-pyridin-3-yloxymethyl]-morpholine]
211 | 5050 | CCOc1ccccc1O[C@H](c1cccnc1)[C@H]1CNCCO1 [Example 90, (2R)-2-[(R)-(2-Ethoxy-phenoxy)-pyridin-3-yl-methyl]-morpholine]
11 | 5600 | N#Cc1ccccc1O[C@@H](c1ccccc1)[C@@H]1CNCCO1 [Example 93, 2-[(S)-(2S)-morpholin-2-yl(phenyl)methoxy]benzonitrile]
8 | 811 | Fc1ccc(Cl)c(OC(c2ccccc2)[C@@H]2CNCCO2)c1 (stereo partly drawn) [Example 94, (2S)-2-[(2-chloro-5-fluorophenoxy)(phenyl)methyl]morpholine]
3 | 3410 | COc1cccc(F)c1OC(c1ccccc1)[C@@H]1CNCCO1 (stereo partly drawn) [Example 95, (2S)-2-[(2-fluoro-6-methoxyphenoxy)(phenyl)methyl]morpholine]

Source: patent US7659394B2 (Pfizer Inc, priority 2004, dated 2010)
